Measured values reported in article PMC8501799, “Constitutive signal bias mediated by the human GHRHR splice variant 1” (Proceedings of the National Academy of Sciences of the …, 2021).

Tests used:
Type in all cases: cell-based, human
GHRHR ΔECD = assay: cAMP accumulation
Method: (§1) GHRH-stimulated cAMP accumulation was measured by a LANCE Ultra cAMP kit (PerkinElmer). Briefly, HEK293T cells (24 h after transfection with SV1 or GHRHR) or prostate cancer cells were digested by 0.2% (wt/vol) EDTA and washed once with Dulbecco’s phosphate-buffered saline (PBS). Cells were then resuspended with stimulation buffer (Hanks’ balanced salt solution [HBSS] supplemented with 5 mM HEPES, 0.5 mM IBMX, and 0.1% [wt/vol] bovine serum albumin [BSA], pH 7.4) to a density of 0.6 million cells per milliliter and added to 384-well white plates (3,000 cells per well). […] The reaction was stopped by adding 5 μL Eu-cAMP tracer and 5 μL ULight-anti-cAMP. After 1 h RT incubation, TR-FRET signals (excitation: 320 nm, emission: 615 and 665 nm) were measured by an Envision plate reader (PerkinElmer). cAMP concentrations were interpolated by a standard curve.
All functional study data were analyzed using Prism 7 (GraphPad) and presented as means ± SEM from at least three independent experiments. Concentration-response curves were evaluated with a three-parameter logistic equation. The significance was determined with either two-tailed Student’s t test or one-way ANOVA, and P < 0.05 is considered statistically significant.
Table S2. Effects of residue mutation or truncation in the ECD of GHRHR on GHRH-induced cAMP […]
Mutant pEC50 Emax (% WT GHRHR) expression ΔLog (τ/KA) […]
cAMP accumulation data were analyzed using a three-parameter logistic equation to determine pEC50 and Emax values. pEC50 is the negative logarithm of the molar concentration of agonist that induced half the maximal response. Emax for mutants is expressed as a percentage of the WT GHRHR. Data were analyzed by nonlinear regression using the operational model equation to determine t he logR values (logτ/KA, i.e., logarithm of the transduction ratio). τ is the effi cacy value of the agonist and was corrected by cell surface expression of the receptor. KA is dissociation constant. Changes in transduction ratio (ΔlogR) were calculated to determine the relative effectiveness of the mutants. All values are means ± S.E.M. of at le ast three ind ep en dent experiments (n = 3-5) conducted in quadruplicate. Statistical analysis was carried out by comparing the control responses in the WT GHRHR. **, P < 0.01 and ***, P < 0.001, determined by one-way

[1] = system: N terminus truncated GHRHRs; assay: β-arrestin 1/2 recruitment (BRET), truncated receptors; conditions: HEK293T
Method: HEK293T cells were seeded at a density of 30,000 cells per well into 96-well culture plates pretreated with poly-D-lysine hydrobromide. After incubation for 24 h to reach 70% to 80% confluence, the cells were transiently transfected with HA-Flag-GHRHR-Rluc8 or HA-Flag-SV1-Rluc8 and β-arrestin 1/2-Venus at a 1:9 mass ratio using lipofectamine 3000 reagent (Invitrogen) and cultured for another 24 h. Thereafter, cells were washed once and incubated for 30 min at 37 °C with HBSS buffer (pH 7.4) supplemented with 0.1% BSA and 10 mM HEPES. Five micromolars of coelenterazine h (YEASEN Biotechnology) was then added and incubated for 5 min in the dark. The bioluminescence resonance energy transfer (BRET) signals were detected with an Envision plate reader by calculating the ratio of emission at 535 nm over emission at 470 nm.

SV1 mutants = assay: cAMP accumulation, peptide-binding pocket mutants of SV1; conditions: impairing contacts in the peptide-binding pocket; HEK293T; Fig. 4D
Method: as §1

CC[C@H](C)[C@H](NC(=O)[C@H](C)NC(=O)[C@H](CC(=O)O)NC(=O)[C@H](C)NC(=O)[C@@H](N)Cc1ccc(O)cc1)C(=O)N[C@@H](Cc1ccccc1)C(=O)N[C@H](C(=O)N[C@@H](CC(N)=O)C(=O)N[C@@H](CO)C(=O)N[C@@H](Cc1ccc(O)cc1)C(=O)N[C@@H](CCCNC(=N)N)C(=O)N[C@@H](CCCCN)C(=O)N[C@H](C(=O)N[C@@H](CC(C)C)C(=O)NCC(=O)N[C@@H](CCC(N)=O)C(=O)N[C@@H](CC(C)C)C(=O)N[C@@H](CO)C(=O)N[C@@H](C)C(=O)N[C@@H](CCCNC(=N)N)C(=O)N[C@@H](CCCCN)C(=O)N[C@@H](CC(C)C)C(=O)N[C@@H](CC(C)C)C(=O)N[C@@H](CCC(N)=O)C(=O)N[C@@H](CC(=O)O)C(=O)N[C@H](C(=O)N[C@@H](CCSC)C(=O)N[C@@H](CO)C(=O)N[C@@H](CCCNC(=N)N)C(=O)N[C@@H](CCC(N)=O)C(=O)N[C@@H](CCC(N)=O)C(=O)NCC(=O)N[C@@H](CCC(=O)O)C(=O)N[C@@H](CO)C(=O)N[C@@H](CC(N)=O)C(=O)N[C@@H](CCC(N)=O)C(=O)N[C@@H](CCC(=O)O)C(=O)N[C@@H](CCCNC(=N)N)C(=O)NCC(=O)N[C@@H](C)C(=O)N[C@@H](CCCNC(=N)N)C(=O)N[C@@H](C)C(=O)N[C@@H](CCCNC(=N)N)C(=O)N[C@@H](CC(C)C)C(N)=O)[C@@H](C)CC)C(C)C)[C@@H](C)O [GHRH, growth hormone–releasing hormone]
cAMP responses after deletion of the entire ECD (GHRHR ΔECD; HEK293T, Fig. 1B): diminished cAMP responses
pEC50 of cAMP accumulation (GHRHR ΔECD; Table S2, HEK293T, LANCE Ultra cAMP, 30 min RT, 0.5 mM IBMX, mean ± SEM, n = 3-5 in quadruplicate): 5.53 ± 0.07
Emax of cAMP accumulation (GHRHR ΔECD; Table S2, HEK293T, mean ± SEM, n = 3-5 in quadruplicate): 111.27 ± 3.65 % WT GHRHR
ΔLog (τ/KA) (GHRHR ΔECD; Table S2, operational model, τ corrected by cell surface expression, relative to WT GHRHR, mean ± SEM): -4.55 ± 0.04
β-arrestin 1/2 recruitments ([1]; deletion made before the first 82 residues, 250 μM GHRH): not affected
β-arrestin 1/2 recruitments ([1]; truncation of the first 89 residues or the entire ECD): enhanced
potency of GHRH-induced cAMP accumulation (SV1 mutants): dramatically decreased the potency
